The results in this text go back to US20140051701A1, “METHODS OF TREATING A DISEASE OR CONDITION OF THE CENTRAL NERVOUS SYSTEM” (Bionomics Limited, priority 2011, published 2014).

“Also recorded” adds a separate entry of the source.

In series [1] the test system is rat primary cortical neurons. Nature of the series: Neurite outgrowth assay in cortical neuron culture. The series is classed as cell-based. As to conditions: for minimal effective concentration: Rattus norvegicus, Primary cortical neuron, 72 h, 3 days exposure of cortical neurons, read-out: concentration giving significant neurite outgrowth; for effect on neurite outgrowth, substance alone: primary cortical neurons; for block of Compound 1-induced enhancement of neurite outgrowth by PLC inhibitor: inhibitor in combination with Compound 1. The procedure: Female rats of 17 days gestation were killed by cervical dislocation and the foetuses were removed from the uterus. Their brains were placed in ice-cold medium of Leibovitz (L15, Gibco, Fisher bioblock, France). Cortex were dissected and meninges were carefully removed. The cortical neurons were dissociated by trypsinization for 30 min at 37° C. (trypsin-EDTA Gibco) in presence of 0.1 mg/ml DNAse I (Roche, France). The reaction was stopped by addition of in medium of Eagle modified by Dulbecco (DMEM; Gibco) with 10% of fetal bovine serum (FBS; Gibco). The suspension was triturated with a 10-ml pipette and using a needle syringe 21G and centrifuged at 350×g for 10 min at room temperature. The pellet of dissociated cells was resuspended in a medium consisting of Neurobasal (Gibco) supplemented with 2% B27 supplement (Gibco), 0.5 mM L-Glutamine (Gibco), an antibiotic-antimicotic mixture. Viable cells were counted in a Neubauer cytometer using the trypan blue exclusion test (Sigma). Cells were seeded on the basis of 30000 cells per Petri dish (ø35 mm, Nunc) precoated with poly-L-lysine.
Cells were allowed to adhere 2 h and maintained in a humidified incubator at 37° C. in 5% CO2-95% air atmosphere.
After neuronal adhesion (2 h after the plating), cultures were exposed to Compound 1 or BDNF for a period of 3 days.
After the 3 days exposure of the neurons to the test compounds, cultures were washed with phosphate-buffered saline (PBS, Gibco) and fixed using 2.5% glutaraldehyde in PBS. Several pictures (˜80) of neurons with neurites without any branching were taken per condition using a digital camera (Coolpix 995; Nikon) mounted on the microscope (Nikon, objective 40×). Neurites were outlined on computer screen using imaging software (Image-Pro Plus, France), which automatically calculates the length.
A global analysis of the data was performed using a one way analysis of variance (ANOVA), followed by Fisher's Protected Least Significant Difference when applicable. The level of significance was set to p<0.05. All results were expressed as mean±sem. N=˜180 cells
The compound of example 1h was tested at 0.1 nM, 1 nM, 10 nM, 100 nM and 1000 nM on two independent cultures comprising 2 Petri dishes per culture and per condition. In parallel, BDNF was tested at 50 ng/ml.

Series [2] is described as follows: Non-precipitated withdrawal (physical dependence) after 14-day dosing. The series is classed as in vivo, rat. The following applies: 14 days at 10, 30 and 100 mg/kg/day; 5 days post-treatment; versus no-drug group; listed as Compound 1. The source says:
Sudden discontinuation of antidepressant medication may produce withdrawal effects caused by physical dependence on the drug. Compounds can be evaluated for physical dependence in a simple animal model where, following a period of chronic dosing (e.g., for 14-20 days), the study drug is stopped and measurements of food intake, body weight and body temperature are taken over the next 5 days. […] This model is suitable for detecting the effects across a broad range of drug classes including opiates, antidepressants and benzodiazepines. […]
Rats treated chronically (14-20 days) with opioids, benzodiazepines Or SSRIs display adverse physical effects after non-precipitated withdrawal of the drugs. The potential consequences of abrupt cessation of dosing with Compound 1 was assessed following 14 days of treatment at 0, 10, 30 and 100 mg/kg/day.

In a further series the test system is mouse. The experiment in a line: Mouse light dark box model. In kind it is in vivo. The procedure:
U73122 was then examined for an in vivo effect on the activity of Example 1 in the mouse light dark box. U73122 was given IP at 30 mg/kg, 120 minutes prior to testing. Compound 1 was dosed orally at 10 mg/kg, 60 minutes prior to testing. […] This experiment was repeated using the anxiolytic compound diazepam to determine whether the activity of U73122 was specific to Compound 1 (FIG. 5).

In the case of `CCOC(=O)c1cn(CC)c2ncc(N)cc2c1=O` [Example 1f, Ethyl 1-ethyl-1,4-dihydro-6-amino-4-oxo-1,8-naphthyridine-3-carboxylate], the minimal effective concentration in series [1] is under 0.1 µM. The same measure, in the same setting: in the case of `CCOC(=O)c1cn(CC)c2ncc(NC3Cc4ccccc4C3)cc2c1=O` [Example 1g, Ethyl 6-(2,3-dihydro-1H-inden-2-ylamino)-1-ethyl-1,4-dihydro-4-oxo-1,8-naphthyridine-3-carboxylate] it was under 0.1 µM. As to `CCn1cc(C(=O)N2CCOCC2)c(=O)c2cc(NC3Cc4ccccc4C3)cnc21` [Example 1h], the “changes in body temperature, weight gain or food consumption after withdrawal” value in series [2] is “does not produce signs of withdrawal; also recorded: did not produce significant changes”. In series [1], the minimal effective concentration was under 0.1 µM and the “effect on neurite outgrowth, substance alone” value is “enhancement of neurite outgrowth”. In addition, the anxiolytic activity entry with mouse (10 mg/kg orally, 60 minutes prior to testing) was “robust anxiolytic activity”. In the case of `CCn1cc(C(=O)N2CCN(C)CC2)c(=O)c2cc(NC3Cc4ccccc4C3)cnc21` [Example 2, Methylpiperazino 6-(2,3-dihydro-1H-inden-2-ylamino)-1-ethyl-1,4-dihydro-4-oxo-1,8-naphthyridine-3-carboxamide], in series [1], the minimal effective concentration was under 0.1 µM. For the molecule `CCn1cc(C(=O)NC2CC2)c(=O)c2cc(NC3Cc4ccccc4C3)cnc21` [Example 3, Cyclopropylamino 6-(2,3-dihydro-1H-inden-2-ylamino)-1-ethyl-1,4-dihydro-4-oxo-1,8-naphthyridine-3-carboxamide], the minimal effective concentration in series [1] was under 0.1 µM. Still for that read-out and setting: to `CCn1cc(C(=O)N2CCOCC2)c(=O)c2cc(N)cnc21` [Example 4, Morpholino 6-amino-1-ethyl-1,4-dihydro-4-oxo-1,8-naphthyridine-3-carboxamide] belongs under 0.1 µM; to `CCn1cc(C(=O)Nc2ccc(F)cc2)c(=O)c2cc(NC3Cc4ccccc4C3)cnc21` [Example 5, 4-fluorophenylamine 6-(2,3-dihydro-1H-inden-2-ylamino)-1-ethyl-1,4-dihydro-4-oxo-1,8-naphthyridine-3-carboxamide], under 0.1 µM. Same read-out and setting: to `CCn1cc(C(=O)Nc2ccc(-c3ccccc3)cc2)c(=O)c2cc(NC3Cc4ccccc4C3)cnc21` [Example 6, 4-biphenylamino-6-(2,3-dihydro-1H-inden-2-ylamino)-1-ethyl-1,4-dihydro-4-oxo-1,8-naphthyridine-3-carboxamide] belongs under 0.1 µM; to `CCOC(=O)c1cn(CC)c2ncc(NC(=O)C(C)C)cc2c1=O` [Example 7, Ethyl 6-(isobutyrylamide)-1-ethyl-1,4-dihydro-4-oxo-1,8-naphthyridine-3-carboxylate], under 0.1 µM. As for `S=C([S-])OC1CC2CC1C1CCCC21.[K+]` (centres unmarked) [Example D609, reference compound], in series [1], the “block of Compound 1-induced enhancement of neurite outgrowth by PLC inhibitor” value is “blocked; also recorded: significant and dose-dependant reduction”; the “effect on neurite outgrowth, substance alone” value was “enhanced neurite outgrowth”.

Regarding `COc1ccc2c(c1)CC[C@@H]1[C@@H]2CC[C@]2(C)[C@@H](NCCCCCCN3C(=O)C=CC3=O)CC[C@@H]12` [Example U73122, reference compound], the “block of Compound 1 activity on neurite outgrowth” value in series [1] (U73122 at 1 μM, Compound 1 10 nM) is recorded as “significant block”. Besides, the “concentration at which full block of Compound 1 activity occurs” value in series [1] (U73122 tested over 30 nM to 1 μM with Compound 1 10 nM) is listed as 100 nM. For the same molecule, the “block of Compound 1-induced enhancement of neurite outgrowth by PLC inhibitor” value in series [1] is reported as “blocked; also recorded: dose-related block”. For the same molecule, the “effect on anxiolytic activity of Compound 1” value in the series on mouse (U73122 30 mg/kg IP in combination with 10 mg/kg p.o. Compound 1) is given as “blocks; also recorded: fully blocked the anxiolytic effect”. Further, the “effect on the Time, Entries or Distance parameters, alone” value in the series with mouse (U73122 30 mg/kg IP, 120 minutes prior to testing) is “did not have any effect”. In the series with mouse (U73122 30 mg/kg i.p. with diazepam 1 mg/kg p.o.), the “effect on the animals' responses to diazepam” value is “did not cause any change”.
